Experiments:
[1] = target: T1, ORL-1 receptor (Mus musculus, UniProt P35377); assay: Agonist functional activity assessed by ERK phosphorylation (pERK) in Neuro-2a cells; type: cell-based
T1 construct: Neuro-2a cells were a gift from Professor John Mattick's laboratory; endogenous in cells; host or cells: Neuro-2a cells
Procedure: (§1) Neuro-2a cells were a gift from Professor John Mattick's laboratory (Institute of Molecular Bioscience, University of Queensland) and were cultured in Gibco® DMEM (Invitrogen, CA, USA) supplemented with 10% FBS (Invitrogen, CA, USA), GIBCO® Pen/Strep (50 units/mL penicillin and 50 μg/mL streptomycin, Invitrogen, CA, USA) and GIBCO® NEAA (1× concentration, Invitrogen, CA, USA). Cells were split 1:10 every 3 days.
(§2) All cells were incubated at 37° C. and 5% CO2. When treated with pertussis toxin (PTX, catalogue number P7208, Sigma-Aldrich, NY, USA), cells were incubated with 500 ng/mL for 15 hours before use. Cells treated with MEK inhibitor PD98059 (catalogue number PHZ1164, Invitrogen, CA, USA) were preincubated with 50 μM for 1 hour before use.
(§3) Cells were placed in 12-well plates (NUNC™, NY, USA) and allowed to adhere for 24-36 h. […]
(§4) Membranes were washed 3×10 minutes with TBE (with 0.1% Tween-20) and incubated with a primary antibody. […] Radiography was quantified using ImageJ (ImageI 1.36b, NIH).
(§5) pERK and total ERK concentrations were determined using a modified protocol for the AlphaScreen Surefire Assay. […] The ratio of pERK to total ERK was determined using equation 1 and normalized to control. […]
(§6) Concentration responses were analyzed using non-linear regression (variable slope) (Prism5, GraphPad Software) and data is presented as either EC50 (for agonists) or IC50 (antagonists). […]

[2] = target: T1, ORL-1 receptor; assay: Antagonist functional activity assessed by ERK phosphorylation (pERK) in Neuro-2a cells challenged with 100 nM nociceptin(1-17)-NH2; type: cell-based
Procedure: as §1, §2, §3, §4, §5, §6

[3] = tested on: C57BL/6 mice; assay: Anti-nociceptive activity in mice, hot plate front paw withdrawal latency; type: in vivo; details: co-administered 200 pmol with SEQ ID NO:8 (200 pmol)
Procedure: Mice (C57BL/6; n=45) were brought into the experimental room for at least 30 minutes prior to testing. They were then individually placed on an accredited hot plate heated to 53±0.54° C. and timed until any front paw withdrawal, licking or jumping behaviour was recorded (baseline response). Mice were not left on the hot plate for longer than 30 sec. […] Mice were then individually placed on the hot plate again at time points 1, 5, 15, 30, 45 and 60 min post injection. Each test was video monitored.
In a parallel experiment, agonist of SEQ ID NO:8 was co-administered with the helical antagonist of SEQ ID NO:13, where upon the increased paw withdrawal latency produced by agonist of SEQ ID NO:8 alone was abolished. This confirms that the helix constrained peptide of SEQ ID NO:13 is a potent antagonist of SEQ ID NO:8 in vivo.

[4] = Serum stability in normal human serum; type: in vitro ADME; details: 37° C., LCMS, read-out: half-life (t1/2) in normal human serum
Procedure: Peptide stability was assessed in normal human serum (Sigma-Aldrich, NY, USA). The peptides were incubated with the serum in a water bath at 37° C. and aliquots were removed at specific time points. Serum proteins were precipitated after adding 3-fold excess acetonitrile, and proteins were precipitated by centrifugation at 17,000 rpm for 15 min. The supernatants were collected and analyzed by LCMS (4000 QTRAPR, Applied Biosystems) and all data normalized to the initial time point.

[5] = tested on: Human erythrocytes; assay: Haemolysis assay; type: cell-based; details: 37° C., 1 hour, absorbance at 544 nm
Procedure: Human erythrocytes were obtained from the Australian Red Cross Blood Service and diluted with PBS (pH 7.4) 1:50 to give a positive control reading of between 1.5-2.0 at 544 nm.
Equal amounts of cells were incubated with various concentrations of peptides and incubated at 37° C. for 1 hour. Cells were pelleted by centrifugation at 17,000 rpm for 5 minutes on a bench top centrifuge and the supernatant was collected. Haemolysis was assessed by reading the absorbance at 544 nm and normalized to 0% (PBS) and 100% (0.1% Triton-X100). This work was done with UQ ethics (200600011) and ARCBS (08-01QLD-07) approval.

[6] = Circular dichroism spectroscopy (helicity); type: physicochemical
Procedure: CD measurements were performed using a Jasco model J-710 spectropolarimeter which was routinely calibrated with (1S)-(+)-10-camphorsulfonic acid. A stock solution of 1-2 mg of peptide was dissolved in 1 mL of water. Separate 500 μL solutions of 50, 100, 200 and 400 μM were then prepared using an appropriate amount of stock solution and making up the different with 10 mM Phosphate Buffer (final pH 7.1). […] Jasco quartz cell over the wavelength range 260-185 nm at 100 nm/min. with a bandwidth of 1.0 nm, response time of 2 s, resolution step width of 1 nm and sensitivity of 20-50 Mdeg. Each spectrum represents the average of 5 scans. Spectra were analyzed using the spectral analysis software and smoothed using ‘adaptive smoothing’ function. Concentrations were determined using the PULCON method. [Wider, Dreier, 2006, J. Am. Chem. Soc. 128:2571-2576]
The incorporation of two lactam bridges induced appreciable helicity, monitored at 222 nm, and was calculated to range between 32-77% helicity. […] This is due to the fact that residues 1-6 (or 1-5 in 6) are not constrained and would not be expected to be in a helical conformation as they feature amino acids that have little or no propensity to adopt helices in proteins. To determine whether the exocyclic regions were the sole cause of low helicity, SEQ ID NO:15 without the N-terminal message was investigated further. This 12-residue peptide features eight residues (K, R, Q) known to favor α-helicity in proteins, and was 60% helical in phosphate buffer by CD spectral analysis. The serine residue is conserved within the sequence of many of these peptides and is known to be a helix breaker.

[7] = circular dichroism; details: 10 mM phosphate; pH 7.4; 22 °C; 50-400 uM

T1 sequence (P35377 whole entry): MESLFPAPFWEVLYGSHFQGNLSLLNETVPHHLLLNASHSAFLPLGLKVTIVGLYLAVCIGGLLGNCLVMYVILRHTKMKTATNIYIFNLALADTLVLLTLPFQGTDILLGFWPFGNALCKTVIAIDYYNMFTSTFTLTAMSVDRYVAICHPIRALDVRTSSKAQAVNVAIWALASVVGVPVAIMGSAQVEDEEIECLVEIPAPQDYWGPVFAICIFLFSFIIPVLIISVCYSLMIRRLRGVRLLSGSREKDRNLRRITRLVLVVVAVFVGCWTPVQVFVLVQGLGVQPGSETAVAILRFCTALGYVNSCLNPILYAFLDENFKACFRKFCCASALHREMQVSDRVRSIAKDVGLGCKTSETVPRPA

In the case of “BzlGGGF(4-F)TG[KRKSD]RK[KKNQD]-NH2 (XGGXTGXRKSXRKXKNQX; N-benzyl, 4-F-Phe, cyclic lactams, C-amide) [SEQ ID NO:13]”, the “agonist activity at single point concentration” value ([1]; 1 μM) is reported as “neither showed significant agonist activity”, the “improvement in antagonist activity (fold)” value ([2]; constrained relative to unconstrained analogue) is reported as “over four-fold” and the “effect on increased paw withdrawal latency produced by agonist SEQ ID NO:8” value [3] is reported as “abolished”.

In the case of C[C@@H](O)[C@H](NC(=O)[C@H](Cc1ccc(F)cc1)NC(=O)CNC(=O)CNC(=O)[C@@H](N)Cc1ccccc1)C(=O)NCC(=O)N[C@H]1CCCCNC(=O)C[C@@H](C(=O)N[C@@H](CCCN=C(N)N)C(=O)N[C@@H](CCCCN)C(=O)N[C@H]2CCCCNC(=O)C[C@@H](C(N)=O)NC(=O)[C@H](CCC(N)=O)NC(=O)[C@H](CC(N)=O)NC(=O)[C@H](CCCCN)NC2=O)NC(=O)[C@H](CO)NC(=O)[C@H](CCCCN)NC(=O)[C@H](CCCN=C(N)N)NC1=O [SEQ ID NO:8, H-FGGF(4-F)TG[KRKSD]RK[KKNQD]-NH2], the half-life [4] is reported as > 6 h and the haemolytic activity [5] is reported as “Neither of the cyclic peptides tested (SEQ ID NOs:7 AND 8), nor the unconstrained nociceptin(1-17)-OH (SEQ ID NO:1) had any haemolytic activity”.

In the case of C[C@@H]1NC(=O)[C@@H](NC(=O)[C@H](CCCCN)NC(=O)[C@H](CCCN=C(N)N)NC(=O)[C@@H]2CC(=O)NCCCC[C@H](NC(=O)CNC(=O)[C@@H](NC(=O)[C@H](Cc3ccccc3)NC(=O)CNC(=O)CNC(=O)[C@@H](N)Cc3ccccc3)[C@@H](C)O)C(=O)N[C@@H](CCCN=C(N)N)C(=O)N[C@@H](CCCCN)C(=O)N[C@@H](CO)C(=O)N2)CCCCNC(=O)C[C@@H](C(N)=O)NC(=O)[C@H](CCC(N)=O)NC(=O)[C@H](CC(N)=O)NC1=O [SEQ ID NO:7, H-FGGFTG[KRKSD]RK[KANQD]-NH2], the half-life [4] is reported as > 6 h and the haemolytic activity [5] is reported as “Neither of the cyclic peptides tested (SEQ ID NOs:7 AND 8), nor the unconstrained nociceptin(1-17)-OH (SEQ ID NO:1) had any haemolytic activity”.

With “Ac-[KRKSD]RK[KKNQD]-NH2 (XRKSXRKXKNQX; N-acetyl, cyclic lactams, C-amide) [SEQ ID NO:15]” the helicity ([6]; phosphate buffer, CD monitored at 222 nm) was 60%.

For CC(C)C[C@H](NC(=O)[C@H](CCCCN)NC(=O)[C@H](CCCN=C(N)N)NC(=O)[C@H](C)NC(=O)[C@H](CO)NC(=O)[C@H](CCCCN)NC(=O)[C@H](CCCN=C(N)N)NC(=O)[C@H](C)NC(=O)CNC(=O)[C@@H](NC(=O)[C@H](Cc1ccccc1)NC(=O)CNC(=O)CNC(=O)[C@@H](N)Cc1ccccc1)[C@@H](C)O)C(=O)N[C@@H](C)C(=O)N[C@@H](CC(N)=O)C(=O)N[C@@H](CCC(N)=O)C(=O)O [SEQ ID NO:1, reference compound], the half-life [4] was ≤ 1 h and the haemolytic activity [5] was “Neither of the cyclic peptides tested (SEQ ID NOs:7 AND 8), nor the unconstrained nociceptin(1-17)-OH (SEQ ID NO:1) had any haemolytic activity”.

In the case of “BzlGlyGGFT[KARKD][KRKLD]-NH2 (XGGFTXARKXXRKLX; N-benzyl, cyclic lactams, C-amide) [SEQ ID NO:14]”, the antagonist activity ([2]; up to 3 μM) is reported as “abolished antagonist activity”.

In the case of CC(C)C[C@H](NC(=O)[C@H](CCCCN)NC(=O)[C@H](CCCNC(=N)N)NC(=O)[C@H](C)NC(=O)[C@H](CO)NC(=O)[C@H](CCCCN)NC(=O)[C@H](CCCNC(=N)N)NC(=O)[C@H](C)NC(=O)CNC(=O)[C@@H](NC(=O)[C@H](Cc1ccccc1)NC(=O)CNC(=O)CNC(=O)[C@@H](N)Cc1ccccc1)[C@@H](C)O)C(=O)N[C@@H](C)C(=O)N[C@@H](CC(N)=O)C(=O)N[C@@H](CCC(N)=O)C(=O)O [compound 1], the helicity [7] is reported as 0.02 frac, the “fH (buffer)” value ([6]; 10 mM phosphate buffer (pH 7.4) at 22° C., fH calculated based on θ at 222 nm) is reported as 0.02 and the “fH (TFE*)” value ([6]; buffer: TFE 50:50, 22° C.) is reported as 0.15. It also gave an Emax ([1]; N2a) of 90 ± 7%.
